These results are taken from patent US12616701B2, “Solid state forms of Resmetirom” (ASSIA CHEMICAL INDUSTRIES LTD., priority 2020, dated 2026).

SMILES strings stand for the structures. Where a name gives a salt, the structure may show the parent alone.

Series [1] in a line: Polymorphic stability at relative humidity, room temperature. Type of series: physicochemical. Particulars: for at least 7 days.
The nature of series [2]: Hygroscopicity of the crystalline form. Particulars: crystalline solid form. Type of series: physicochemical.

As for `CC(C)c1cc(Oc2c(Cl)cc(-n3nc(C#N)c(=O)[nH]c3=O)cc2Cl)n[nH]c1=O` [Form 20, 2-[3,5-dichloro-4-[(6-oxo-5-propan-2-yl-1H-pyridazin-3-yl)oxy]phenyl]-3,5-dioxo-1,2,4-triazine-6-carbonitrile], the “relative humidity up to which the form is polymorphically stable” value (shortened to “relative humidity up”) in series [1] is recorded as “up to 80 % relative humidity”. Moreover, in series [2], the hygroscopicity result is “non-hygroscopic”.

Regarding `CC(C)c1cc(Oc2c(Cl)cc(-n3nc(C#N)c(=O)[nH]c3=O)cc2Cl)n[nH]c1=O` [Form R2-A, Resmetirom piperazine salt], the “relative humidity up” value in series [1] was “up to 100 % relative humidity”. The hygroscopicity result in series [2] was “non-hygroscopic”.

For the molecule `CC(C)c1cc(Oc2c(Cl)cc(-n3nc(C#N)c(=O)[nH]c3=O)cc2Cl)n[nH]c1=O` [Form R3-A, Resmetirom:L-proline], in series [1], the “relative humidity up” value is given as “up to 80 % relative humidity”. Besides, the hygroscopicity entry in series [2] was “non-hygroscopic”.

As to `CC(C)c1cc(Oc2c(Cl)cc(-n3nc(C#N)c(=O)[nH]c3=O)cc2Cl)n[nH]c1=O` [Form RC1-A, Resmetirom:nicotinamide], in series [1], the “relative humidity up” value is “up to 80 % relative humidity”. In addition, in series [2], the hygroscopicity result is listed as “non-hygroscopic”.

Consider `CC(C)c1cc(Oc2c(Cl)cc(-n3nc(C#N)c(=O)[nH]c3=O)cc2Cl)n[nH]c1=O` [Form RC2-A, Resmetirom:caffeine], for which the “relative humidity up” value in series [1] was “up to 100 % relative humidity”. The hygroscopicity entry in series [2] was “non-hygroscopic”.

Turning to `CC(C)c1cc(Oc2c(Cl)cc(-n3nc(C#N)c(=O)[nH]c3=O)cc2Cl)n[nH]c1=O` [Form RC2-B, Resmetirom:caffeine], the “relative humidity up” value in series [1] is on record as “up to 80 % relative humidity”. For the same molecule, the hygroscopicity result in series [2] is on record as “non-hygroscopic”.
